Data as given in patent US7947839B2, “Heterocyclic-substituted bis-1,8 naphthalimide compounds, antibody drug conjugates, and methods of use” (Genentech, Inc., priority 2004, dated 2011).
Like-named read-outs stand apart in the source and are kept apart here.

How the values were obtained:
[1] = molecular target: T1, topoisomerase I isolated from calf thymus (Bos taurus, UniProt F1MN93); conditions: supercoiled DNA relaxation assay; cited from earlier work
T1 construct: topoisomerase I isolated from calf thymus; from tissue; host or cells: calf thymus
T1 sequence (F1MN93 1-767): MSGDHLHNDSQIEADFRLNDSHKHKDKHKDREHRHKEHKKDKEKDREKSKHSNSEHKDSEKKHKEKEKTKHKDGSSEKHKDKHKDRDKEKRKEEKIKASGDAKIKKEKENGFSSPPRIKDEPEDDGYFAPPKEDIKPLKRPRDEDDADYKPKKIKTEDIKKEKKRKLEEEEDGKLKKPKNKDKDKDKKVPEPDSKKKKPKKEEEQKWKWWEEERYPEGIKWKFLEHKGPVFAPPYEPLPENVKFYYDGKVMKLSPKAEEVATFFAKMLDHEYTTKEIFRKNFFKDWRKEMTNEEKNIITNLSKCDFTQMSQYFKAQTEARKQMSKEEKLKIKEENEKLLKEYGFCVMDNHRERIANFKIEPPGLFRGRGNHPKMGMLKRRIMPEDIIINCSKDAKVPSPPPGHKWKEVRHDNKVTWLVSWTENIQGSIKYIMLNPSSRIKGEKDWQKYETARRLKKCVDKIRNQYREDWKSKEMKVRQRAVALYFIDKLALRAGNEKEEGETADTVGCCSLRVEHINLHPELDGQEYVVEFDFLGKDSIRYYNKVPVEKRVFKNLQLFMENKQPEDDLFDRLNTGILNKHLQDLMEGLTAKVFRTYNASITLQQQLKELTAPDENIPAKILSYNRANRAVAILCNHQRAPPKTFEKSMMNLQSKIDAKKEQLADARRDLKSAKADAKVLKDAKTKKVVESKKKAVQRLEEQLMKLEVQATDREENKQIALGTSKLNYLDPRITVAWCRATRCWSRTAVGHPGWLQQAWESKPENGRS

[2] = system: topoisomerase II; conditions: unlike most other known topoisomerase II inhibitors; cited from earlier work
[3] = system: mouse xenograft models; conditions: repeated dosing regimens; no strong schedule dependency; cited from earlier work
[4] = system: MX-1 (mammary carcinoma) xenografts; conditions: iv five daily doses at 20 mg/kg (2 cycles), or every 3 days for two doses at 55 mg/kg (2 cycles), or weekly for four doses; cited from earlier work
[5] = system: human melanoma (LOX); conditions: in vivo; cited from earlier work
[6] = system: human lung (LX-1) carcinoma xenograft; conditions: in vivo; cited from earlier work
[7] = system: human colon (CX-1) carcinoma xenograft; conditions: in vivo; cited from earlier work
[8] = system: BT474, H460, HCT116, HUVEC, LNCAP, MCF7, and PC3 cells; test: free test compound cell-based assay, 7 tumor cell panel (CellTiter-Glo); parameters: species or system Human; conditions: Homo sapiens, NSA = no significant activity
Procedure: Heterocyclic-substituted bis-1,8-naphthalimide compounds of Formula XV in Table 2 were prepared and tested for in vitro activity against a panel of tumor cells (Example 110).
Alternatively, the efficacy of compounds of the invention can be assayed by the following free test compound cell-based assay protocol
• 1. Prepare each cell line (BT474, H460, HCT116, HUVEC, LNCaP, MCF7, and PC3) at 1 k cells/well in separate plates with Complete Media (CM): RPM1 […]+10% FBS (Fetal Bovine Serum)+1% of 200 mM L-Glutamine. Plate number depends on test compounds provided by submitter. • 2. Detach prospective cell lines by first removing the media. When the flask is empty of media, begin rinsing out individual flasks with 5 mL sterile PBS. Move the PBS around within the flask to rinse well. Decant the PBS and add aseptically 5 mL of Accutase/flask. Make sure the Accutase covers the entire flask. • 3. Immediately place the flask(s) into a 37° C. incubator to allow cells to detach for 5-7 minutes. • 4. Post 5-7 minutes, remove flask(s) from the incubator and begin harvesting the detached cells using a serological pipette. Pipette up and down along the back of the flask to facilitate cell detachment. Pipette the Accutase containing cells into a sterile 50 mL conical tube/cell line. Pipette 10 mL of sterile PBS and re-rinse the flask to obtain remaining cells and dispense it into the same 50 mL conical tube/cell line for a total volume of 15 mL/tube/cell line. • 5. After each cell line has been allocated to a designated tube, take out 100 μL/tube/cell line for the cell counts. While the cell counts are being calculated, centrifuge the 50 mL tubes at 1000 rpm at 4° C. with a high brake. • 6. When centrifugation and cell calculations are completed, decant excess liquid and resuspend the cell pellet(s) using 5 mL CM, depending on calculations. • 7. Using a 5 mL syringe and an 18 G ½ needle, strain the cells to help prevent aggregation. Further strain by using a […] cell filter to block out any huge aggregates not broken down by the needle. • 8. After cell straining and filtering, take out calculated amount for a 1 k cells/well into fresh media. Take the media containing cells and load 100 μL/well into a bottom tissue culture treated flat 96 well plate. • 9. Immediately place in a 37° C. incubator overnight to allow the cells to adhere to the tissue culture treated 96 well plates. Day 2: • 1. Test compounds are submitted at 10 mM in sterile DMSO. • 2. DMSO as negative control and a positive standard are used in every assay! • 3. Prepare a 1:1000 fold dilution for each test compound, control, and standard for a 10e-5 M starting point. Do a 1:100 first, then a 1:10. • 4. Prior to diluting samples, vortex the samples and the controls for a homogeneous mixture. Note any sample that will not solubilize and/or stay in suspension. • 5. When the samples are at 10e-5 M, vortex each tube well and spin down fluid to ensure sample remains in tacked. Manual Dilution Protocol: • 1. After the tubes are at a final 1:1000 (10e-5 M) dilution, load the first column of the microtube box with the prospective sample. Load DMSO and positive control in singlets. The test compounds are loaded in duplicates. Load the remaining empty microtube racks with 540 μL of media to prepare for a serial dilution of 1:10. • 2. Agitate and transfer 60 μL from column 1 into successive wells containing 540 μL of media (1:10). Therefore, transfer 60 μL of column 1 into 540 μL of column 2. Resuspend column 2 about 10-15×'s then transfer 60 μL from column 2 to column 3 etc. Automated Dilution Protocol: • 1. Once the tubes are at a final 1:1000 (10e-5 M), load the first column of the microtube box with the prospective sample. Load DMSO and positive control in singlets. The compounds are loaded in duplicates. Load the remaining empty microtube racks manually with 540 μL of media to prepare for the automated serial dilution of 1:10 (see above diagram). • 2. […]

[9] = average linear IC50 across the 7 tumor cell panel, read-out: Avg.
[10] = average log IC50 across the 7 tumor cell panel, read-out: Avg. (log IC50) (converted)

Row | SMILES | IC50 [8, 9] [µM] | IC50 [8, 10] [µM] | other results
1 | O=C1c2cccc3cccc(c23)C(=O)N1CCNCCCNCCN1C(=O)c2cccc3cccc(c23)C1=O [elinafide] |  |  | IC50 [1]: 5 µM; DNA cleavage [2]: does not cause significant DNA cleavage; antitumor activity [3]: demonstrated antitumor activity; regression of MX-1 (mammary carcinoma) xenografts [4]: complete regression; efficacy in human melanoma (LOX) models [5]: curative; tumor regression in human lung (LX-1) carcinoma xenograft model [6]: partial and complete tumor regression, as well as some cures; tumor regression in human colon (CX-1) carcinoma xenograft model [7]: partial and complete tumor regression, as well as some cures
2 | CC(=O)N(CCCNCCN1C(=O)c2cccc3c(N4CCOCC4)ccc(c23)C1=O)CCN1C(=O)c2cccc3c(N4CCOCC4)ccc(c23)C1=O [Compound 54c, N, N′-(N-acetyl, bis-aminoethyl-1,3-propanediamine)-bis-4-morpholino-1,8 naphthalimide] | 0.191 | 0.191 | 
3 | CC(=O)N1CCN(c2ccc3c4c(cccc24)C(=O)N(CCNCCNCCN2C(=O)c4cccc5c(N6CCN(C(C)=O)CC6)ccc(c45)C2=O)C3=O)CC1 [Compound 63a, N, N′-(bis-aminoethyl-1,2-ethanediamine)-bis 4-(4-acetylpiperazino)-1,8 naphthalimide] | 0.00447 | 0.00447 | 
4 | O=C(CCS)N(CCCNCCN1C(=O)c2cccc3c(N4CCOCC4)ccc(c23)C1=O)CCN1C(=O)c2cccc3c(N4CCOCC4)ccc(c23)C1=O [Compound 55c, N, N′-(N-3-mercaptopropionyl, bis-aminoethyl-1,3-propanediamine)-bis-4-morpholino-1,8 naphthalimide] | 3.71 | 3.72 | 
5 | NCC(=O)N(CCCNCCN1C(=O)c2cccc3c(N4CCOCC4)ccc(c23)C1=O)CCN1C(=O)c2cccc3c(N4CCOCC4)ccc(c23)C1=O [Compound 54d, N, N′-(N-glycyl, bis-aminoethyl-1,3-propanediamine)-bis-4-morpholino-1,8 naphthalimide] | 0.324 | 0.324 | 
6 | CCOC(=O)N(CCCNCCN1C(=O)c2cccc3c(N4CCOCC4)ccc(c23)C1=O)CCN1C(=O)c2cccc3c(N4CCOCC4)ccc(c23)C1=O [Compound 54f, N, N′-(N-carboethoxy, bis-aminoethyl-1,3-propanediamine)-bis-4-morpholino-1,8 naphthalimide] | 0.692 | 0.692 | 
7 | CC(=O)N1CCN(c2ccc3c4c(cccc24)C(=O)N(CCNCCCNCCN2C(=O)c4cccc5c(N(C)C)ccc(c45)C2=O)C3=O)CC1 [Compound 64, N, N′-(bis-aminoethyl-1,3-propanediamine)-4-(4-acetylpiperazino)-4-dimethylamino-1,8 naphthalimide] | 0.00182 | 0.00182 | 
8 | O=C1c2cccc3c(N4CCOCC4)ccc(c23)C(=O)N1CCCCNCCCN1C(=O)c2cccc3c(N4CCOCC4)ccc(c23)C1=O [Compound 45, N, N′-(4-aza-octanyl)-bis-4-morpholino-1,8 naphthalimide] | 1.51 | 1.51 | 
9 | O=C(CN1C(=O)c2cccc3c(N4CCOCC4)ccc(c23)C1=O)NCCCNCCN1C(=O)c2cccc3c(N4CCOCC4)ccc(c23)C1=O [Compound 41] | 0.00339 | 0.00339 | 
10 | O=C1c2cccc3c(N4CCNCC4)ccc(c23)C(=O)N1CCNCCCNCCN1C(=O)c2cccc3c(N4CCNCC4)ccc(c23)C1=O [Compound 58a, N, N′-(bis-aminoethyl-1,3-propanediamine)-bis-4-piperazino-1,8 naphthalimide] | 0.0017 | 0.0017 | 
11 | O=C1c2cccc3cc([N+](=O)[O-])cc(c23)C(=O)N1CCNCCCNCCN1C(=O)c2cccc3c(N4CCOCC4)ccc(c23)C1=O [Compound 56a, N, N′-(bis-aminoethyl-1,3-propanediamine)-3-nitro, 4-morpholino-1,8 naphthalimide] | 0.00162 | 0.00162 | 
